The values that follow come from ChEMBL document CHEMBL3046575, “Synthesis and studies on antidepressant activity of 2,4,6-trihydroxychalcone derivatives” (2012).

Calls of active or inactive are those of the source. The rule behind the calls is not given here.

Assay [1] concerns Mus musculus. Nature of the assay: Antidepressant activity in Mus musculus Kunming (mouse) assessed as reduction in immobility time at 10 mg/kg, ip administered 30 min before test by forced swim test relative to control. Also noted: scale not given: the % may be the effect or the level left. The note with it: route intraperitoneal. The assay is classed as functional.
The subject of assay [2] is Mus musculus. Nature of the assay: Antidepressant activity in Mus musculus (mouse) assessed as reduction in immobility time at 10 to 40 mg/kg, ip administered 30 min before test by tail suspension test. Format: functional, organism-based.
Assay [3] concerns Mus musculus. Briefly: Antidepressant activity in Mus musculus Kunming (mouse) assessed as reduction in immobility time at 10 to 40 mg/kg, ip administered 30 min before test by forced swim test. The assay is classed as functional, organism-based.

For `O=C(/C=C/c1ccc(Cl)cc1Cl)c1c(O)cc(O)cc1O`, the Activity with Mus musculus [1] came to 27.43%. `O=C(/C=C/c1ccccc1Br)c1c(O)cc(O)cc1O`: the result in the assay on Mus musculus [2] and in the assay on Mus musculus [3] was Active. The Activity with Mus musculus [1] is reported as 50.04%. With `Cc1ccc(/C=C/C(=O)c2c(O)cc(O)cc2O)cc1`, the Activity with Mus musculus [1] is 17.35%. Still for that read-out and setting: next, `O=C(/C=C/c1ccc(O)c(O)c1)c1c(O)cc(O)cc1O` [3,4,2',4',6'-PENTAHYDROXYCHALCONE]: 29.09%. Take `O=C(/C=C/c1ccccc1Cl)c1c(O)cc(O)cc1O`: in the assay on Mus musculus [1], the Activity worked out at 18.72%.

As to `Cc1ccc(/C=C/C(=O)c2c(O)cc(O)cc2O)cc1C`, in the assay on Mus musculus [1], the Activity stood at 13.31%.

Turning to `O=C(/C=C/c1ccc(F)cc1)c1c(O)cc(O)cc1O` [4-FLUORO-2',4',6'-TRIHYDROXYCHALCONE], in the assay on Mus musculus [1], the Activity is listed as 4.39%. On the same count and under the same terms, next, `COc1cc(/C=C/C(=O)c2c(O)cc(O)cc2O)ccc1O`: 22.89%. The same measure, in the same setting: next, `O=C(/C=C/c1ccc(Br)cc1)c1c(O)cc(O)cc1O` [4-BROMO-2',4',6'-TRIHYDROXYCHALCONE]: 19.29%; `O=C(/C=C/c1cccc(Cl)c1)c1c(O)cc(O)cc1O`: 27.57%.

For `O=C(/C=C/c1ccc(Cl)cc1)c1c(O)cc(O)cc1O` [4-CHLORO-2',4',6'-TRIHYDROXYCHALCONE], the Activity in the assay on Mus musculus [1] amounted to 27.07%.

On to `COc1ccc(/C=C/C(=O)c2c(O)cc(O)cc2O)cc1OC`, for which the Activity in the assay with Mus musculus [1] is 17.57%. Same read-out and setting: next, `O=C(/C=C/c1ccccc1F)c1c(O)cc(O)cc1O`: 33.55%. In the case of `CNCCC(Oc1ccc(C(F)(F)F)cc1)c1ccccc1` (stereo not given) [FLUOXETINE], the Activity in the assay on Mus musculus [1] came to 58.68%.

Take `COc1ccc(/C=C/C(=O)c2c(O)cc(O)cc2O)cc1` [4-METHOXYL-2',4',6'-TRIHYDROXYCHALCONE]: the Activity with Mus musculus [1] is listed as 11.09%. Still for that read-out and setting: next, `O=C(/C=C/c1cccc(Br)c1)c1c(O)cc(O)cc1O`: 26.64%; `O=C(/C=C/c1ccc(O)cc1)c1c(O)cc(O)cc1O` [4,2',4',6'-TETRAHYDROXYCHALCONE]: 28.51%; `O=C(/C=C/c1cccc(F)c1)c1c(O)cc(O)cc1O`: 17.21%.
